{"source": "patent US20260131010A1", "about": "“MENIN PROTEOLYSIS TARGETING CHIMERAS (PROTACS)” (Board of Regents, The University of Texas System, priority 2022, published 2026)", "origin": "cited, not measured here", "test_system": "MLL leukemias", "conditions": "Borkin, et al. Cancer Cell 2015, 27(4) 589-602", "data": [{"smiles": "Cc1c(CN2CCC(Nc3ncnc4sc(CC(F)(F)F)cc34)CC2)ccc2c1cc(C#N)n2Cc1cn[nH]c1", "note": "[MI-503]", "values": [{"measurement": "efficacy in mouse models of MLL leukemias", "value": "effective"}]}]}
